From EP4644396A1 (Visionpharma (Nantong) Co., Ltd, priority 2022, dated 2024)
Where two headings read alike, the source gives them in different places.

Key:
human TLR8 = target: T1, human TLR8 (Homo sapiens, UniProt Q9NR97); assay: HEK-Blue hTLR8 SEAP reporter gene inhibition assay; assay type: cell-based; settings: read-out: HEK-Blue hTLR8 IC50
T1 construct: expressed in transfected cells
T1 sequence (Q9NR97 27-1041): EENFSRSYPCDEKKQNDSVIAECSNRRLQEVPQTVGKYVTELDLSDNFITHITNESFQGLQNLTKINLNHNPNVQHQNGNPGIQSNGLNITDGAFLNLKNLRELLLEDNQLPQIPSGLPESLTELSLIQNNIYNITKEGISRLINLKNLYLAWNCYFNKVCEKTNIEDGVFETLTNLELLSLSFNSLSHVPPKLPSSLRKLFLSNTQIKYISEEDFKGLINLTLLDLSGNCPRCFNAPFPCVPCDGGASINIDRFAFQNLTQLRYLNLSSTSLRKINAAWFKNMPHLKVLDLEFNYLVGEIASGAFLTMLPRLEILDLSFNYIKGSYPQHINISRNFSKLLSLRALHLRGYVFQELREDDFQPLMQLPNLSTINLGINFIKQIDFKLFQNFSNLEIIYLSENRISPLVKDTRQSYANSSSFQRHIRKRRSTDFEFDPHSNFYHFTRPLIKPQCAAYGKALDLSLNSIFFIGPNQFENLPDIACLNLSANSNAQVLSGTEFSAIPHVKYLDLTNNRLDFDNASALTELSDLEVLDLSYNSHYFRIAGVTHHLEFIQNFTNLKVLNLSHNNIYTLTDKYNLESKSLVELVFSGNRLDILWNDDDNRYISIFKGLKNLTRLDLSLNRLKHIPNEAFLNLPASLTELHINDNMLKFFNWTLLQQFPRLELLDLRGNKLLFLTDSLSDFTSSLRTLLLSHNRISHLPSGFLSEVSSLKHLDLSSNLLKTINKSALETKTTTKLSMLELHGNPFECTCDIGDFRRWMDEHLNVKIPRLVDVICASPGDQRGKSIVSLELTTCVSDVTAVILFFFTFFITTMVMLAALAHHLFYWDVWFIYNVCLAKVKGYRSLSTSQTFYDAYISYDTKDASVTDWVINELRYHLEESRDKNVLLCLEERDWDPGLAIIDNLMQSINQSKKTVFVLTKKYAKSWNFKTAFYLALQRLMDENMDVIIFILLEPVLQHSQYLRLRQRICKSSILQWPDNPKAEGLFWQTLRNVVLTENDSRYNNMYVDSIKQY
How it was run: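 SEAP read-out by Quanti-Blue after 20 h stimulation gave IC50 values. Stable hTLR7 or hTLR8 HEK-Blue cells were pretreated 15 min with compound at 0.001–36 µM final, then stimulated with 10 µM Gardiquimod (TLR7) or 10 µM TLR8 ligand.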

human TLR7 = target: T2, human TLR7 (Homo sapiens, UniProt Q9NYK1); assay: HEK-Blue hTLR7 SEAP reporter gene inhibition assay; assay type: cell-based; settings: read-out: HEK-Blue hTLR7 IC50
T2 sequence (Q9NYK1 27-1049): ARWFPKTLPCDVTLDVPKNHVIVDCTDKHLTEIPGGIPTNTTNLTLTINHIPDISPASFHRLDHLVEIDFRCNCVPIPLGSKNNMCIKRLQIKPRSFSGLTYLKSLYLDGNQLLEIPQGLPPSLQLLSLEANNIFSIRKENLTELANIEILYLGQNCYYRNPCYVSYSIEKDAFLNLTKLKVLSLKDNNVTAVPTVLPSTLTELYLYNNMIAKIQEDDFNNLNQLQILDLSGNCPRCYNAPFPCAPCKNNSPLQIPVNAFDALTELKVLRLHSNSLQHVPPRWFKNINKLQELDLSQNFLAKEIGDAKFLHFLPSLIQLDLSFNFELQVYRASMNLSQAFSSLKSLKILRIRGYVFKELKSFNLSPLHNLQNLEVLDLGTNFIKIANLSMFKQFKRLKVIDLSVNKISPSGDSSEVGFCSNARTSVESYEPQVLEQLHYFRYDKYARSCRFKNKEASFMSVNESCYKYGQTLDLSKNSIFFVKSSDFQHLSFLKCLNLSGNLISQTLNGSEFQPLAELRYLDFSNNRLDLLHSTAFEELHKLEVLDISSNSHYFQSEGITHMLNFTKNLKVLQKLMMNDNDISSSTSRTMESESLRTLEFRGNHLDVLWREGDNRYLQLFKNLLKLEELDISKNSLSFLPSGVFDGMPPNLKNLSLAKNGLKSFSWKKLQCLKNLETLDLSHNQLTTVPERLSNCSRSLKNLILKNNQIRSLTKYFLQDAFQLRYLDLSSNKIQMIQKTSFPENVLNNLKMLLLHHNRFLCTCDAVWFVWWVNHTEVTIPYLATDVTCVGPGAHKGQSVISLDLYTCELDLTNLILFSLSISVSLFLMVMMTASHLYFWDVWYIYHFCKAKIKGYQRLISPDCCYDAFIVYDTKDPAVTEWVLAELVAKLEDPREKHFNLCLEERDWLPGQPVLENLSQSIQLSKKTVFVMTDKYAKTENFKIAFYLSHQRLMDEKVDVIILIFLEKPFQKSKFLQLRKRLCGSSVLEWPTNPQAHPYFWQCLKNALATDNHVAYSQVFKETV
Description: HEK-Blue cells with stable expression of human TLR7 or TLR8 were used in the evaluation of inhibitory activity of compounds in the present invention against TLR7 or TLR8, by using its ability to induce the SEAP reporting gene under the control of the fusion of IFN-β minimum promoters into five NF-κB and ap-1 binding sites, as follows: hTLR7 HEK-Blue cells (Invivogen, 80, 000 cells per well) or hTLR8 HEK-Blue cells (60, 000 cells per well) were added to a 96-well cell culture plate. A solution of the testing compounds were added to each well, with the final concentration of tested compounds in the medium ranged from 0.001 to 36 µM and the culture was incubated for 15 minutes. M5049 was used as positive controls in the testing.
Then a TLR7 ligand (Gardiquimod, purchased from MedChemExpress, with final concentration of ligand in cell culture medium kept at 10 µM) or a TLR8 ligand (purchased from MedChemExpress with final concentration in cell culture media at 10 µM) and the culture was incubated for 20 hours. According to the manufacturer's instructions, a HEK-Blue reagent Quanti-blue (Invivogen) was used to detect the SEAP levels in cell cultures. The half […] concentration or IC50 was calculated by using GraphPad Prism. […] Table 1: Activities of examples in this invention to hTLR7/8 in HEK-Blue Cells

[1] = hTLR8 HEK-Blue cells, TLR8 ligand 10 µM, 20 hours, SEAP by Quanti-blue, class symbols
[2] = hTLR7 HEK-Blue cells, TLR7 ligand Gardiquimod 10 µM, 20 hours, SEAP by Quanti-blue, class symbols

Row | Compound | IC50 (human TLR8; [1]) [nM] | IC50 (human TLR7; [2]) [nM] | IC50 (human TLR8) [nM] | IC50 (human TLR7) [nM]
1 | C[C@@H]1NCCc2c1nn1c2CN(c2ccc(C#N)n3ncc(F)c23)C[C@H]1C [Example I-39, 4-((4R,7S)-4,7-dimethyl-3,4,7,8,9,10-hexahydropyrido[3',4':3,4]pyrazolo[1,5-a]pyrazin-2(1H)-yl)-3-fluoropyrazolo[1,5-a]pyridine-7-carbonitrile] | < 100 | < 50 |  | 
2 | C[C@@H]1CN(c2ccc(C#N)n3ncc(F)c23)Cc2c3c(nn21)CN(CC12CC(C(N)=O)(C1)C2)[C@@H](C)C3 [Example I-193, 3-(((4R,9S)-2-(7-cyano-3-fluoropyrazolo [1,5-a]pyridin-4-yl)-4,9-dimethyl-1,2,3,4,9,10-hexahydropyrido[3',4':3,4]pyrazolo[1,5-a]pyrazin-8(7H)-yl)methyl)bicyclo[1.1.1] pentane-1-carboxamide] | < 100 | > 50 |  | 
3 | C[C@@H]1CN(c2ccc(C#N)n3ncc(F)c23)Cc2c3c(nn21)CN(C(CO)CO)[C@@H](C)C3 [Example I-159, 4-((4R,9S)-8-(1,3-dihydroxypropan-2-yl)-4,9-dimethyl-3,4,7,8,9,10-hexahydropyrido [3',4':3,4]pyrazolo[1,5-a]pyrazin-2(1H)-yl)-3-fluoropyrazolo[1,5-a]pyridine-7-carbonitrile] | > 100 | > 50 |  | 
4 | C[C@@H]1CN(c2ccc(C#N)n3ncc(F)c23)Cc2c3c(nn21)CNC(c1ccn[nH]1)C3 (stereo partly drawn) [Example I-68, 3-Fluoro-4-((4R)-4-methyl-9-(1H-pyrazol-5-yl)-3,4,7,8,9,10-hexahydropyrido[3',4':3,4]pyrazolo[1,5-a]pyrazin-2(1H)-yl)pyrazolo[1,5-a]pyridine-7-carbonitrile] | < 100 | > 50 |  | 
5 | C[C@@H]1CN(c2ccc(C#N)n3ncc(F)c23)Cc2c3c(nn21)C1CCC(C3)N1 (stereo partly drawn) [Example I-52, 3-Fluoro-4-((4R)-4-methyl-1,3,4,7,8,9,10,11-octahydro-2H-7,10-epiminocyclohepta [3,4]pyrazolo[1,5-a]pyrazin-2-yl)pyrazolo[1,5-a]pyridine-7-carbonitrile] | < 100 | < 50 |  | 
6 | C[C@@H]1CN(c2ccc(C#N)n3ncc(F)c23)Cc2c3c(nn21)CC(N)CC3 (single isomer, unassigned) [Example I-20a] | < 100 | < 50 |  | 
7 | C[C@@H]1CN(c2ccc(C#N)n3ncc(F)c23)Cc2c3c(nn21)CN(C[C@H](O)CO)[C@@H](C)C3 [Example I-160, 4-((4R,9S)-8-((S)-2,3-dihydroxypropyl)-4,9-dimethyl-3,4,7,8,9,10-hexahydropyrido[3',4':3,4]pyrazolo[1,5-a]pyrazin-2(1H)-yl)-3-fluoropyrazolo[1,5-a]pyridine-7-carbonitrile] | > 100 | > 50 |  | 
8 | C[C@@H]1CN(c2ccc(C#N)c3ncccc23)Cc2c3c(nn21)CN(CC(N)=O)[C@@H](C)C3 [Example I-141, 2-((4R,9S)-2-(8-cyanoquinolin-5-yl)-4,9-dimethyl-1,2,3,4,9,10-hexahydropyrido [3',4':3,4]pyrazolo[1,5-a]pyrazin-8(7H)-yl)acetamide] | > 100 | > 50 |  | 
9 | C[C@@H]1CN(c2ccc(C#N)n3ncc(F)c23)Cc2c3c(nn21)CN(CC(C)(CO)CO)[C@@H](C)C3 [Example I-225, 3-Fluoro-4-((4R,9S)-8-(3-hydroxy-2-(hydroxymethyl)-2-methylpropyl)-4,9-dimethyl-3,4,7,8,9,10-hexahydropyrido[3',4':3,4]pyrazolo[1,5-a]pyrazin-2(1H)-yl)pyrazolo[1,5-a]pyridine-7-carbonitrile] |  |  | > 100 | > 50
10 | C[C@@H]1CN(c2ccc(C#N)n3ncc(F)c23)Cc2c3c(nn21)CN(CC(=O)N1CCOCC1)[C@@H](C)C3 [Example I-139, 4-((4R,9S)-4,9-dimethyl-8-(2-morpholino-2-oxoethyl)-3,4,7,8,9,10-hexahydropyrido [3',4':3,4]pyrazolo[1,5-a]pyrazin-2(1H)-yl)-3-fluoropyrazolo[1,5-a]pyridine-7-carbonitrile] | > 100 | < 50 |  | 
11 | C[C@@H]1CN(c2ccc(C#N)n3ncc(F)c23)Cc2c3c(nn21)CNCC3 [Example I-5, (R)-3-fluoro-4-(4-methyl-3,4,7,8,9,10-hexahydropyrido[3',4':3,4]pyrazolo[1,5-a]pyrazin-2(1H)-yl)pyrazolo[1,5-a]pyridine-7-carbonitrile] | < 100 | < 50 |  | 
12 | 3-((4R,9S)-2-(7-cyano-3-fluoropyrazolo[1,5-a]pyridin-4-yl)-4,9-dimethyl-1,2,3,4,9,10-hexahydropyrido[3',4':3,4]pyrazolo[1,5-a]pyrazin-8(7H)-yl)cyclobutane-1-carboxamide [Example I-164] | > 100 | < 50 |  | 
13 | C[C@@H]1CN(c2ccc(C#N)n3ncc(F)c23)Cc2c3c(nn21)C(CO)NCC3 (stereo partly drawn) [Example I-33, 3-Fluoro-4-((4R)-7-(hydroxymethyl)-4-methyl-3,4,7,8,9,10-hexahydropyrido[3',4':3,4]pyrazolo[1,5-a]pyrazin-2(1H)-yl)pyrazolo[1,5-a]pyridine-7-carbonitrile] | < 100 | > 50 |  | 
14 | C[C@@H]1CN(c2ccc(C#N)n3ncc(F)c23)Cc2c3c(nn21)CN(S(=O)(=O)CCN(C)C)[C@@H](C)C3 [Example I-118] | < 100 | < 50 |  | 
15 | 4-((4R,9S)-8-(D-prolyl)-4,9-dimethyl-3,4,7,8,9,10-hexahydropyrido [3',4':3,4] pyrazolo [1,5-a]pyrazin-2(1H)-yl)-3-fluoropyrazolo[1,5-a]pyridine-7-carbonitrile [Example I-120] | < 100 | > 50 |  | 
